Laboratory results reported in patent publication US20110275635A1 (priority 2009, published 2011).
In brackets after ≈: the same amount, converted by molar mass. Where two headings read alike, the source gives them in different places.

How the values were obtained:
B. cereus = experiment: microbe, parasite or virus in culture; type: cell-based; conditions: Bacillus cereus, read-out: MIC (μg/mL) B. cereus
B. anthracis NADs = B. anthracis NADs (Bacillus anthracis, UniProt Q81RP3); type: biochemical
B. anthracis NADs, sequence (Q81RP3 whole entry, looked up): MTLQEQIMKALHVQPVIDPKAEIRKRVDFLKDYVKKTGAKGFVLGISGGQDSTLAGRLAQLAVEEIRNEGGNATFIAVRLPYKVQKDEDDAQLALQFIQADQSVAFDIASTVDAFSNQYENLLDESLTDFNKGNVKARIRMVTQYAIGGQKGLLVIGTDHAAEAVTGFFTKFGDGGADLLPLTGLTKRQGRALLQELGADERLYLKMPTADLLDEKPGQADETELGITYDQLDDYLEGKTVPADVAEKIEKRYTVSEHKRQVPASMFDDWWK

S. pneumoniae = experiment: microbe, parasite or virus in culture; type: cell-based; conditions: Streptococcus pneumoniae, read-out: MIC (μg/mL) S. pneumoniae
S. aureus = experiment: microbe, parasite or virus in culture; type: cell-based; conditions: Staphylococcus aureus, read-out: MIC (μg/mL) S. aureus
[1] = In vivo toxicity, maximum tolerated dose; conditions: female, BALB/c, mouse, intraperitoneal
[2] = Pharmacokinetics, plasma concentration after intraperitoneal injection
[3] = tested on: Bacillus anthracis Sterne; experiment: microbe, parasite or virus in culture; type: cell-based
E. faecium VRE = experiment: microbe, parasite or virus in culture; type: cell-based; conditions: Enterococcus faecium, read-out: MIC (μg/mL) E. faecium VRE
E. faecalis = experiment: microbe, parasite or virus in culture; type: cell-based; conditions: Enterococcus faecalis, read-out: MIC (μg/mL) E. faecalis
S. aureus MRSA = experiment: microbe, parasite or virus in culture; type: cell-based; conditions: Staphylococcus aureus, read-out: MIC (μg/mL) S. aureus MRSA
B. anthracis = experiment: microbe, parasite or virus in culture; type: cell-based; conditions: Bacillus anthracis, read-out: MIC (μg/mL) B. anthracis
SUM159 = experiment: In vitro human breast cancer cell growth inhibition; type: cell-based; conditions: SUM159 cells, read-out: In Vitro Human Breast Cancer Inhibition (IC50, μM) SUM159
Hep-G2 = experiment: In vitro inhibition of normal human cells; type: cell-based; conditions: HepG2
BEAS-23 = experiment: In vitro inhibition of normal human cells; type: cell-based; conditions: read-out: In Vitro Inhibition Normal Human Cells (IC50, μM) BEAS-23
IMR90 = experiment: In vitro inhibition of normal human cells; type: cell-based; conditions: IMR-90
hNaMNAT-1 = hNaMNAT-1 (Homo sapiens, UniProt Q9HAN9); experiment: Human NAMNAT inhibition in vitro; type: biochemical
hNaMNAT-1, sequence (Q9HAN9 whole entry): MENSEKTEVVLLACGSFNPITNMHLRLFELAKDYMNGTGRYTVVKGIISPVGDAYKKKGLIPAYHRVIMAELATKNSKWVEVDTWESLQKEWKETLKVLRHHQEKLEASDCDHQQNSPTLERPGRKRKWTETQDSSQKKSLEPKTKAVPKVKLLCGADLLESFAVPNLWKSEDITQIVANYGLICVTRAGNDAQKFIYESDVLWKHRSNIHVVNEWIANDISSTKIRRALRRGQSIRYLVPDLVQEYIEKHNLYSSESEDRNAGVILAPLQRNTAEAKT

MDA-MB-436 = experiment: In vitro human breast cancer cell growth inhibition; type: cell-based; conditions: MDA-MB-436 cells, read-out: In Vitro Human Breast Cancer Inhibition (IC50, μM) MDA-MB-436
HEK293 = experiment: In vitro inhibition of normal human cells; type: cell-based
HCC1937 = experiment: In vitro human breast cancer cell growth inhibition; type: cell-based; conditions: HCC1937 cells, read-out: In Vitro Human Breast Cancer Inhibition (IC50, μM) HCC1937

For `O=C(Nc1ccc([N+](=O)[O-])cc1)Nc1ccc(S(=O)(=O)Nc2ccc(Cl)c(Cl)c2)cc1` [Compound 5824], the MIC (B. cereus) was 0.78 µg/mL (≈ 1.62 µM), the “activity against NADs (in words)” value (B. anthracis NADs) was “good activities” and the IC50 (B. anthracis NADs; read-out: IC50) was 10 µM. The IC50 (B. anthracis NADs; read-out: NADs IC50) was 10 µM, the MIC (S. pneumoniae) was 3.6 µg/mL (≈ 7.48 µM) and the MIC (S. aureus) was 10.8 µg/mL (≈ 22.4 µM). The MTD [1] was 25 mg/kg, the “time to highest plasma drug concentration” value (“time” below) ([2]; 25 mg/kg (Bid), second dose 8 hr after first, time after first dose) was “about 12 hours” and the “time” value ([2]; 25 mg/kg (QD), mouse plasma) was 2 h. For the same compound, the “time” value ([2]; 50 mg/kg (QD), mouse plasma) was 2 h, the “activity against B. anthracis (in words)” value [3] was “good activities” and the MIC ([3]; Bacillus anthracis, read-out: B.a. MIC (μM)) was 1.9 µM (≈ 0.915 µg/mL). The MIC (E. faecium VRE) was 10.8 µg/mL (≈ 22.4 µM), the MIC (E. faecalis) was 14 µg/mL (≈ 29.1 µM) and the MIC (S. aureus MRSA) was 5.5 µg/mL (≈ 11.4 µM). For the same compound, the MIC (B. anthracis) was 1.2 µg/mL (≈ 2.49 µM).
`O=C(Nc1ccc(O)cc1)Nc1ccc(S(=O)(=O)Nc2ccc(Cl)c(Cl)c2)cc1` [Compound 6400] showed an IC50 (SUM159) of 50 µM, an IC50 (Hep-G2) of 112 µM and an IC50 (BEAS-23) greater than 200 µM. For the same compound, the IC50 (IMR90) was greater than 200 µM, the IC50 (hNaMNAT-1) was 13 µM and the IC50 (MDA-MB-436) was 95 µM. It also gave an IC50 (HEK293) greater than 200 µM and an IC50 (HCC1937) of 95 µM.
